# Test results taken from patent EP0133795B1 (THE McLEAN HOSPITAL CORPORATION, priority 1983, dated 1985).
# Experiments:
# [1] = Enzymatic hydrolysis of cholesteryl [14C]GABA ester by rat brain homogenate; format: in vitro ADME; conditions: 3 mg/ml, 37°C, S1 fractions of rat brain homogenates (0.8 mg/ml of protein)
# Excerpt: Cholesterol hydrolases and esterases are present in mammalian brain tissue.
# [2] = Comparative brain/liver uptake of 14C-labeled compounds (Brain Penetration Index)
# Protocol: The criterion used herein for measuring the extent to which a compound, from which the radical A is derived, crosses the blood-brain barrier is based on the uptake of this compound by the brain relative to its uptake by the liver. […] Measurements of the quantity of a compound present in brain and liver at 5 minutes after a subcutaneous (s.c.) injection were used to calculate a Brain Penetration Index (BPI), with the equation: [formula]
# This is the amount of the compound present per gram of brain tissue as a percent of the amount per gram of liver tissue.
# This procedure has the advantage that even for a sparingly soluble lipid ester, which tends to remain largely at the site of the injection and slowly diffuse into the circulation, its level in the liver will reflect the amount available rather than the initial dose injected.
# The uptake of a ^14C-labeled compound into brain was compared with the uptake into liver of the same animal.
# All determinations were carried out at 5 min after injection. The volumes of the injected doses into mice (body weight, 18-24 g) for the i.v., i.p., and s.c. doses were 0.15, 0.3 and 0.5 ml, respectively. […] Each tissue was homogenized in 8 ml of pyridine in a glass homogenizer.
# Each labeled test compound was injected as a solution in 0.5 ml of saline (Compound 7) or in 25% propylene glycol in water (Compounds 1, 5, 6) subcutaneously (s.c.) into young adult Balb/c mice (18-24 g body weight). After 5 min (or longer) animals were sacrificed and the brain and liver removed, weighed and homogenized respectively in 8 ml and 10 ml of brain protein solvent (1 % (w/v) sodium dodecyl sulfate in 6 M urea and 19 mM EDTA, pH 7.4, 0.03 M phosphate). Aliquots (0.5 ml) of the homogenates were mixed with 10 ml of Aquasol 2 (New England Nuclear) and counted in a Beckman liquid scintillation counter. The total uptake of each compound per g brain and liver tissue was calculated. The proportion of uptake into brain as compared to liver (100%) of the same animal was designated as the Brain Penetration Index (BPI), expressed as a percentage typically at 5 min after injection.
# Each of the ^14C-labeled Compounds 26, 28 and 30 were in 125 µl of the propylene glycol diluted with water up to 0.5 ml, and then injected subcutaneously into test Balb/c mice (20 ± 2 g weight). After 5 min the animals were sacrificed and the brain and liver were removed, weighed and homogenized in 8 ml and 10 ml of brain protein solvent, respectively. Next 0.5 ml aliquots were mixed with 10 ml of Aquasol 2 (New England Nuclear Corp., Boston, MA) and counted in a Beckman liquid scintillation counter. The data for the label in each tissue were used to calculate the total quantity of the compound present in brain and liver per gram of tissue. The ratio of the amount in brain as a percent of that present in liver at 5 min was taken as the Brain Penetration Index (BPI). Measurements at longer uptake times were also obtained to evaluate the accumulation of the compounds in the brain.
# GABA "receptors" = assay: Inhibition of [3H]GABA binding to synaptic membranes from rat cerebellum; conditions: [3H]GABA (15 nM); synaptic membrane preparations from rat cerebellum
# Protocol: IC50 values were determined by fitting data to linearized transformations, based on including at least two concentrations of antagonists above and below the IC50, with at least triplicate replication per concentration.
# [3] = n-Octanol/water partition coefficient; format: physicochemical; conditions: 5 ml n-octanol / 5 ml water, stirring 18 hours
# Protocol: A Partition Coefficient was defined by the equation: [formula] representing the amount of the ester taken up per ml of n-octanol relative to the amount of the same compound taken up per ml of water.
# The n-octanol/water partition coefficients were obtained from measurements of the distribution of 1, 3, 5 and 6 pmol quantities of each ^14C-labeled compound into a mixture of 5 ml of n-octanol and 5 ml water. At each concentration, the amount of labeled compound in the aqueous and n-octanol phases was calculated from the amount of radioactive material present after stirring for 18 hours.
# [4] = test system: bicuculline-induced epileptic seizures; assay: Delay of onset of bicuculline-induced seizures (anticonvulsant activity); format: in vivo, mouse; conditions: for Onset of seizures: % Saline Control / Survival Time: % Saline Control: 24 hr pretreatment
# [5] = 1 hr after administration; TLC
# general motor activity = assay: General motor activity of rats (dose-response, Fig. 1); format: in vivo; conditions: n = 6 per dose
# Excerpt: • Figures 1A and 1 B show the effects of cholesteryl-GABA on general motor activity.
# [6] = 50 μmol/kg s.c., 5 min, mice, mean ± S.E.M. (n = 3)
# [7] = 16 mg/kg, bicuculline 0.3 mg/kg
# [8] = 30 mg/kg, bicuculline 0.3 mg/kg
# [9] = 84 mg/kg, bicuculline 0.3 mg/kg, mean ± SEM, n ≥ 6
substance,measurement,setting,value
(3-Cholesteryl)-gamma-Aminobutyrate [Compound 6],Amount of Unreacted Substrate (6),"[1]; 10 min, 40 μl aliquots, TLC",53.0 ± 7.0 nmol
same,Amount of Unreacted Substrate (6),[1]; 30 min,43.5 ± 6.3 nmol
same,Amount of Unreacted Substrate (6),[1]; 60 min,34.5 ± 4.9 nmol
same,(BRAIN),[2]; [6],0.17 ± 0.03 nmol/g
same,(LIVER),[2]; [6],0.69 ± .08 nmol/g
same,BPI,[2]; [6],25 ± 7%
same,(BRAIN),"[2]; 50 μmol/kg s.c., 15 min, mice",0.67 nmol/g
same,(LIVER),"[2]; 50 μmol/kg s.c., 15 min, mice",1.19 nmol/g
same,BPI,"[2]; 50 μmol/kg s.c., 15 min, mice",56%
same,(BRAIN),"[2]; 50 μmol/kg s.c., 60 min, mice",0.79 nmol/g
same,(LIVER),"[2]; 50 μmol/kg s.c., 60 min, mice",0.92 nmol/g
same,BPI,"[2]; 50 μmol/kg s.c., 60 min, mice",86%
same,(BRAIN),"[2]; 50 μmol/kg s.c., 180 min, mice",0.60 nmol/g
same,(LIVER),"[2]; 50 μmol/kg s.c., 180 min, mice",1.89 nmol/g
same,BPI,"[2]; 50 μmol/kg s.c., 180 min, mice",32%
same,increase of 5-min BPI over GABA,"[2]; 5 min after s.c. injection, relative to GABA",25 fold
same,BPI,"[2]; Table IX summary, 5-min Brain Penetration Index",25
same,accumulation of radioactivity in brain persisted post-injection,"[2]; s.c., mice",45 to 60 min
same,IC50,"GABA ""receptors""",10 µM
same,KOW: Octanol/Water Partition Coefficient,[3],110.
same,Onset of seizures: % Saline Control,"[4]; 3 mg/kg, bicuculline 0.3 mg/kg",120 ± 6 % Saline Control
same,Survival Time: % Saline Control,"[4]; 3 mg/kg, bicuculline 0.3 mg/kg",95 ± 15 % Saline Control
same,Onset of seizures: % Saline Control,[4]; [7],129 ± 4 % Saline Control
same,Survival Time: % Saline Control,[4]; [7],101 ± 20 % Saline Control
same,Onset of seizures: % Saline Control,[4]; [8],130 ± 8 % Saline Control
same,Survival Time: % Saline Control,[4]; [8],104 ± 18 % Saline Control
same,Onset of seizures: % Saline Control,[4]; [9],137 ± 7 % Saline Control
same,Survival Time: % Saline Control,[4]; [9],109 ± 9 % Saline Control
same,delay of onset of seizures,"[4]; 24 hr after i.p. injection of 30 mg/kg, bicuculline 0.3 mg/kg",30%
same,In Vivo Delay of Time of Onset of Bicuculline-induced seizures,[4]; graded 0-5,5
same,labeled compound present as intact molecules in brain homogenates,[5],about 70%
same,i.p. injected dose at which motor activity was reduced by 50%,general motor activity,8 µmol/kg
